The subject of data set [1] is P388. The data set can be described thus: Antitumor activity against mouse P388 cells allografted in BDF1 mouse assessed as increase in survival time at 3.13 mg/kg administered 24 hrs post challenge relative to control. The class given is functional.
Data set [2] has as its system P388. Put plainly: Antitumor activity against mouse P388 cells allografted in BDF1 mouse assessed as mouse survival at 1.56 mg/kg administered 24 hrs post challenge relative to control. The class given is functional, organism-based. More on the design: dose 1.56 mg/kg.
For data set [3], the system named is P388. Put plainly: Antitumor activity against mouse P388 cells allografted in BDF1 mouse assessed as increase in survival time at 6.25 mg/kg administered 24 hrs post challenge relative to control. The class given is functional.
Data set [4] has as its system P388. The data set can be described thus: Antitumor activity against mouse P388 cells allografted in BDF1 mouse assessed as increase in survival time at 0.78 mg/kg administered 24 hrs post challenge relative to control. The class given is functional.
For data set [5], the system named is P388. The data set can be described thus: Antitumor activity against mouse P388 cells allografted in BDF1 mouse assessed as mouse survival at 25 mg/kg administered 24 hrs post challenge relative to control. The data set is classed as functional, organism-based. Details: dose 25 mg/kg.
Data set [6] relates to Mus musculus. Put plainly: Toxicity in mouse P388 cells allografted BDF1 mouse assessed as body weight difference at 25 mg/kg administered 24 hrs post challenge relative to control. Details: dose 25 mg/kg. Conditions: in vivo. The data set is classed as organism-based.
In data set [7] the test system is Mus musculus. Put plainly: Toxicity in mouse P388 cells allografted BDF1 mouse assessed as body weight difference at 1.56 mg/kg administered 24 hrs post challenge relative to control. The data set is classed as organism-based. More on the design: dose 1.56 mg/kg. The following applies: in vivo.
The test system of data set [8] is P388. The data set can be described thus: Antitumor activity against mouse P388 cells allografted in BDF1 mouse assessed as increase in survival time at 25 mg/kg administered 24 hrs post challenge relative to control. The data set is classed as functional.
The test system of data set [9] is Mus musculus. The data set can be described thus: Toxicity in mouse P388 cells allografted BDF1 mouse assessed as body weight difference at 0.78 mg/kg administered 24 hrs post challenge relative to control. The data set is classed as organism-based. More on the design: dose 0.78 mg/kg. The following applies: in vivo.
Data set [10] relates to B16. The data set can be described thus: Antitumor activity against mouse B16 cells allografted in BDF1 mouse assessed as increase in survival time at 8 mg/kg administered 24 hrs post challenge relative to control. The class given is functional.
The test system of data set [11] is P388. The data set can be described thus: Antitumor activity against mouse P388 cells allografted in BDF1 mouse assessed as mouse survival at 3.13 mg/kg administered 24 hrs post challenge relative to control. The class given is functional, organism-based. More on the design: dose 3.13 mg/kg.
Data set [12] has as its system B16. The data set can be described thus: Antitumor activity against mouse B16 cells allografted in BDF1 mouse assessed as increase in survival time at 4 mg/kg administered 24 hrs post challenge relative to control. The class given is functional.
In data set [13] the test system is P388. Put plainly: Antitumor activity against mouse P388 cells allografted in BDF1 mouse assessed as mouse survival at 0.78 mg/kg administered 24 hrs post challenge relative to control. The class given is functional, organism-based. Details: dose 0.78 mg/kg.
For data set [14], the system named is Mus musculus. Put plainly: Toxicity in mouse P388 cells allografted BDF1 mouse assessed as body weight difference at 3.13 mg/kg administered 24 hrs post challenge relative to control. The following applies: in vivo. More on the design: dose 3.13 mg/kg. The data set is classed as organism-based.
The subject of data set [15] is P388. Put plainly: Antitumor activity against mouse P388 cells allografted in BDF1 mouse assessed as increase in survival time at 1.56 mg/kg administered 24 hrs post challenge relative to control. The data set is classed as functional.
Data set [16] concerns P388. The data set can be described thus: Antitumor activity against mouse P388 cells allografted in BDF1 mouse assessed as mouse survival at 6.25 mg/kg administered 24 hrs post challenge relative to control. The class given is functional, organism-based. Details: dose 6.25 mg/kg.
Data set [17] has as its system P388. Put plainly: Antitumor activity against mouse P388 cells allografted in BDF1 mouse assessed as increase in survival time at 12.5 mg/kg administered 24 hrs post challenge relative to control. The data set is classed as functional.
Data set [18] relates to B16. The data set can be described thus: Antitumor activity against mouse B16 cells allografted in BDF1 mouse assessed as increase in survival time at 16 mg/kg administered 24 hrs post challenge relative to control. The class given is functional.
Data set [19] deals with Mus musculus. Put plainly: Toxicity in mouse P388 cells allografted BDF1 mouse assessed as body weight difference at 6.25 mg/kg administered 24 hrs post challenge relative to control. The class given is organism-based. More on the design: dose 6.25 mg/kg. The following applies: in vivo.
Data set [20] has as its system Mus musculus. The data set can be described thus: Toxicity in mouse P388 cells allografted BDF1 mouse assessed as body weight difference at 12.5 mg/kg administered 24 hrs post challenge relative to control. Conditions: in vivo. The data set is classed as organism-based. More on the design: dose 12.5 mg/kg.
The subject of data set [21] is P388. The data set can be described thus: Antitumor activity against mouse P388 cells allografted in BDF1 mouse assessed as mouse survival at 12.5 mg/kg administered 24 hrs post challenge relative to control. The class given is functional, organism-based. Details: dose 12.5 mg/kg.
For data set [22], the system named is P388. The data set can be described thus: Antitumor activity against mouse P388 cells allografted in BDF1 mouse assessed as increase in survival time at 0.06 mg/kg administered 24 hrs post challenge relative to control. The data set is classed as functional.
Data set [23] has as its system Mus musculus. The data set can be described thus: Toxicity in mouse P388 cells allografted BDF1 mouse assessed as body weight difference at 2 mg/kg administered 24 hrs post challenge relative to control. The following applies: in vivo. Details: dose 2 mg/kg. The class given is organism-based.
The subject of data set [24] is P388. The data set can be described thus: Antitumor activity against mouse P388 cells allografted in BDF1 mouse assessed as increase in survival time at 2 mg/kg administered 24 hrs post challenge relative to control. The data set is classed as functional.
In data set [25] the test system is P388. Put plainly: Antitumor activity against mouse P388 cells allografted in BDF1 mouse assessed as increase in survival time at 1 mg/kg administered 24 hrs post challenge relative to control. The data set is classed as functional.
Data set [26] concerns P388. The data set can be described thus: Antitumor activity against mouse P388 cells allografted in BDF1 mouse assessed as mouse survival at 0.06 mg/kg administered 24 hrs post challenge relative to control. The data set is classed as functional, organism-based. More on the design: dose 0.06 mg/kg.
Data set [27] deals with Mus musculus. The data set can be described thus: Toxicity in mouse P388 cells allografted BDF1 mouse assessed as body weight difference at 0.5 mg/kg administered 24 hrs post challenge relative to control. The data set is classed as organism-based. Details: dose 0.5 mg/kg. The following applies: in vivo.
Data set [28] concerns Mus musculus. Put plainly: Toxicity in mouse P388 cells allografted BDF1 mouse assessed as body weight difference at 0.06 mg/kg administered 24 hrs post challenge relative to control. More on the design: dose 0.06 mg/kg. The data set is classed as organism-based. The following applies: in vivo.
In data set [29] the test system is B16. The data set can be described thus: Antitumor activity against mouse B16 cells allografted in BDF1 mouse assessed as increase in survival time at 1 mg/kg administered 24 hrs post challenge relative to control. The data set is classed as functional.
Data set [30] deals with P388. The data set can be described thus: Antitumor activity against mouse P388 cells allografted in BDF1 mouse assessed as mouse survival at 2 mg/kg administered 24 hrs post challenge relative to control. The class given is functional, organism-based. More on the design: dose 2 mg/kg.
The subject of data set [31] is P388. The data set can be described thus: Antitumor activity against mouse P388 cells allografted in BDF1 mouse assessed as mouse survival at 0.25 mg/kg administered 24 hrs post challenge relative to control. The data set is classed as functional, organism-based. Details: dose 0.25 mg/kg.
Data set [32] has as its system P388. Put plainly: Antitumor activity against mouse P388 cells allografted in BDF1 mouse assessed as increase in survival time at 0.25 mg/kg administered 24 hrs post challenge relative to control. The data set is classed as functional.
Data set [33] concerns P388. The data set can be described thus: Antitumor activity against mouse P388 cells allografted in BDF1 mouse assessed as increase in survival time at 0.12 mg/kg administered 24 hrs post challenge relative to control. The data set is classed as functional.
For data set [34], the system named is Mus musculus. The data set can be described thus: Toxicity in mouse P388 cells allografted BDF1 mouse assessed as body weight difference at 0.25 mg/kg administered 24 hrs post challenge relative to control. The data set is classed as organism-based. More on the design: dose 0.25 mg/kg. Conditions: in vivo.
The test system of data set [35] is P388. The data set can be described thus: Antitumor activity against mouse P388 cells allografted in BDF1 mouse assessed as increase in survival time at 0.5 mg/kg administered 24 hrs post challenge relative to control. The data set is classed as functional.
In data set [36] the test system is Mus musculus. Put plainly: Toxicity in mouse P388 cells allografted BDF1 mouse assessed as body weight difference at 0.12 mg/kg administered 24 hrs post challenge relative to control. The data set is classed as organism-based. Conditions: in vivo. More on the design: dose 0.12 mg/kg.
Data set [37] has as its system B16. Put plainly: Antitumor activity against mouse B16 cells allografted in BDF1 mouse assessed as increase in survival time at 0.5 mg/kg administered 24 hrs post challenge relative to control. The data set is classed as functional.
The subject of data set [38] is Mus musculus. Put plainly: Toxicity in mouse P388 cells allografted BDF1 mouse assessed as body weight difference at 1 mg/kg administered 24 hrs post challenge relative to control. The following applies: in vivo. More on the design: dose 1 mg/kg. The data set is classed as organism-based.
In data set [39] the test system is P388. Put plainly: Antitumor activity against mouse P388 cells allografted in BDF1 mouse assessed as mouse survival at 0.12 mg/kg administered 24 hrs post challenge relative to control. The data set is classed as functional, organism-based. Details: dose 0.12 mg/kg.
Data set [40] has as its system P388. Put plainly: Antitumor activity against mouse P388 cells allografted in BDF1 mouse assessed as mouse survival at 0.5 mg/kg administered 24 hrs post challenge relative to control. The data set is classed as functional, organism-based. More on the design: dose 0.5 mg/kg.

Active and inactive are the calls of the source. The rule behind the calls is not given here.

Usually T/C stands for the result in the treated group divided by that in the control group, in per cent. As for `NCCNc1ccc(NCCN)c2c1C(=O)c1ccccc1C2=O`, the T/C in the data set with P388 [1] worked out at 107%; with P388 [3] it was 159%; in the data set with P388 [4], 150%; with P388 [8], 215%; in the data set with B16 [10], 280%; with B16 [12], 280%. The T/C worked out at 137% in the data set on P388 [15], 174% in the data set with P388 [17] and 281% in the data set on B16 [18]. Also, the outcome in the data set on P388 [2], in the data set with P388 [5], with P388 [11], in the data set on P388 [13], in the data set with P388 [16] and with P388 [21] was Active. The Activity is reported as -2.6 g with Mus musculus [6]; -1.6 g in the data set with Mus musculus [7]; -1.3 g with Mus musculus [9]; -0.9 g in the data set with Mus musculus [14]; -1.1 g in the data set with Mus musculus [19]; -1.1 g in the data set on Mus musculus [20].
On to `O=C1c2c(O)ccc(O)c2C(=O)c2c(NCCNCCO)ccc(NCCNCCO)c21` [MITOXANTRONE], for which the T/C with P388 [22] is given as 208%; with P388 [24], 280%; in the data set with P388 [25] it was 277%; in the data set with B16 [29], 503%; with P388 [32], 280%; in the data set on P388 [33], 200%. The T/C with P388 [35] came out at 299%; in the data set on B16 [37] it was 466%. The Activity in the data set on Mus musculus [23] was -0.6 g; with Mus musculus [27] it was -2 g; with Mus musculus [28], -1.7 g; with Mus musculus [34], -2.3 g; in the data set on Mus musculus [36], -1.4 g; in the data set with Mus musculus [38], -0.6 g. The result in the data set on P388 [26], with P388 [30], in the data set on P388 [31], in the data set on P388 [39] and in the data set with P388 [40] was Active.

The values are drawn from ChEMBL document CHEMBL3244338, “Antineoplastic agents. Structure-activity relationship study of bis(substituted aminoalkylamino)anthraquinones” (J Med Chem, 1978).
